Source: US20210164997A1, “HSP70 PROTEIN LEVELS IN PBMC SAMPLES AS BIOMARKER FOR DISEASE” (Orphazyme A/S, priority 2018, published 2021)

Experiments:
mutant NPC1 mice = conditions: cited from earlier work
[1] = system: Hsp70 (HspA1A and HspA1B) in PBMC; assay: Hsp70 level in PBMC samples of NPC patients treated with arimoclomol (ELISA); format: in vivo, human
Experimental: Whole blood samples were collected in 6 mL EDTA tubes at the clinical study sites and shipped ambient to a central laboratory for sample preparation.
Clinical study samples (n=26) were obtained from individuals with Niemann Pick disease Type C (NPC patients), who were 2 to 18 years of age, diagnosed with NPC, had at least one neurological symptom and had preserved ability to walk with assistance. Patients were maintained on standard therapy during the study. Samples were collected at a first clinical study visit (inclusion) and at a second clinical study visit 6 to 14 months following the first visit.
Plasma was separated from whole blood by centrifugation at room temperature. Blood volume was restored in PBS and PBMCs were isolated by density gradient centrifugation using Histopaque™. Viable PBMC cell count was determined by flow cytometry. Aliquots of 1 mio. PBMC were generated and stored frozen at −70° C.
Hsp70 was quantified using the Human/Mouse/Rat total HSP70 DuoSet® IC ELISA kit (R&D Systems). Prior to analysis of the clinical study samples, the analytical method had been qualified for determination of Hsp70 in human PBMC samples. The Human/Mouse/Rat total HSP70 DuoSet® IC ELISA kit detects the levels of HspA1A and HspA1B with no cross-reactivity of HspA5 and HspA8.
The materials and methods were performed as described in Example 1.
The Hsp70 concentration was measured in homogenates of Peripheral Blood Mononuclear Cells (PBMC). Hsp70 was determined in an observational study (FIGS. 4 and 5), at screening (pretreatment) and then again after 6-14 months (baseline). Patients were treated for 12 months with arimoclomol (Clinicaltrials.gov identifier NCT02612129). Hsp70 levels were analyzed by the Wilcoxon signed rank test for the 12 patients on arimoclomol with baseline and 12 months data point comparing the Hsp70 levels before and after 12 months of treatment.

[2] = PBMC homogenates, 12 months of treatment vs baseline, n=12

[O-][n+]1cccc(/C(Cl)=N/OC[C@H](O)CN2CCCCC2)c1 [arimoclomol, N-[2-hydroxy-3-(1-piperidinyl)-propoxy]-pyridine-1-oxide-3-carboximidoyl chloride]
neuronal as well as visceral pathology (mutant NPC1 mice): reversed | size of the lysosomal compartment (mutant NPC1 mice): reduced | Hsp70 change from baseline, Median [1, 2]: 1175.5 pg/mL | Hsp70 change from baseline, Min-max [1, 2]: 234.7 to 6509.0 pg/mL | Hsp70 change from baseline, mean (SD) [1, 2]: 1815.0 (1754.6) pg/mL | PBMC-level of Hsp70 compared to baseline ([1]; treatment for 12 months): significantly increased
